Common to all, as to assay type: cell-based
The target in one assay is T1, A431 (EGFR_WT) (Homo sapiens, UniProt P00533).
T1 construct: endogenous in cells; host or cells: A431, NCI-H2073, NCI-H292
As to the kind of experiment: EGFR degradation assay (western blot), A431 cells. As to conditions: compounds 24 h, western blot, read-out: A431 DC50. How it is done:
(§1) A431 (EGFR_WT), NCl-H2073 (EGFR_WT), NCl-H292 (EGFR_WT), BaF3_YVAM (Her2_A775insYVAM), BaF3_SVD (EGFR_D770insSVD), BaF3_ASV (EGFR_A776inASV), or BaF3_DTC (EGFR_Exon19del/T790M/C797S) cells were seeded in a 24-well plate at a density of 4×10^5 cells per well for EGFR WT cells and 8× cells per well for EGFR or Her2 mutant cells, and the plates were incubated overnight. The cells were treated with the desired compounds for 24 h. The culture medium was removed, and 100 μL of RIPA buffer (Beyotime, P0013B) containing 1% Protease Inhibitor Cocktail (Bimake, B14001), 1% Phosphatase Inhibitor Cocktail 2 (Sigma, P5726), and 1% Phosphatase Inhibitor Cocktail 3 (Sigma, P0044) were added to lyse the cells. Then, the cell lysates were transferred to 1.5 mL microcentrifuge tubes and centrifuged at 12,000 rpm and 4° C. for 30 min. The supernatants were transferred into new tubes, and the protein concentration was determined using the BCA protein quantification method. All samples were diluted to the same concentration using RIPA buffer, loading buffer was added, samples were denatured, and 15 μg of protein per lane was loaded onto a SurePAGE 4-20% Bis-Tris gel. Samples were separated via electrophoresis in MOPS running buffer at 180 V for 100 min. Then, proteins were transferred onto PVDF membranes using the MiniBlot™ Electrophoretic Transfer Cell Device (Beyotime, E6050). The membrane was blocked using block buffer (LI-COR 927-60001) to prevent non-specific binding. The membrane was incubated with primary antibodies (1:500 dilution, EGFR-CST4405, 1:2000 dilution, Tubulin-ABclonal #AC021) at 4° C. overnight. The membrane was washed three times with 1× TBST buffer for 15 min each. The membrane was incubated with secondary antibodies IRDye 680RD Goat anti-Rabbit IgG Secondary Antibody (1:2000 dilution, LI-COR 926-68071) and IRDye 800CW Goat anti-Mouse IgG Secondary Antibody (1:2000 dilution, LI-COR 926-32210). Finally, the membrane was washed again with 1× TBST buffer 3 times. Fluorescence was detected using the Odyssey CLx Imaging System, and the data were analyzed with Empiria Studio Software and GraphPad Prism 9. Table 4 and Table 5 list the degradation results, where the degradation potency is represented by DC50, the concentration of compounds to cause the degradation of 50% of the corresponding proteins. FIGS. 45-49 show western blots illustrating the EGFR degradative activity of exemplary Compound of the present disclosure and a comparator Compound A in different cell lines 24 h after administration. The Compound referred herein as Compound A is disclosed in WO 2022/171123 A1 (see, compound 133, page 46; published Aug. 18, 2022). WO 2022/171123 A1 discloses phosphine oxide derived molecules with EGFR degradation activity.
(In western blotting, separated proteins are transferred to a membrane and probed.)

In a further assay the test system is A431. As to the kind of experiment: Cell growth inhibition assay (CellTiter-Glo), A431. As to conditions: Homo sapiens, A-431, 72 h, Table 6; A431 cells, three days, CellTiter-Glo; read-out: A431 GI50. How it is done: (§2) Cells were seeded in a 96-well plate (Corning 3610) with 90 μL of culture medium per well, and plates were incubated at 37° C. overnight. A 1,000× DMSO stock solution of the desired compound was prepared the following day. A compound dilution plate was prepared by diluting the stock solution 1:100 in the corresponding cell culture medium, 10 μL of the diluted compound solution was added to each 96-well plate well containing the seeded cells. […] The content of the wells was mixed by shaking continuously for 10 min, and luminescence was measured using Envision (PerkinElmer). The data were analyzed with GraphPad Prism 9 (see FIG. 50).
(§3) Table 6, Table 7, and Table 8 list the cell growth inhibition results, where Gls0 represents the compound concentration to cause 50% cell growth inhibition in comparison with DMSO.
Background: ATP-based viability assays read luminescence as a measure of living cells.

In another assay the test system is BaF3_DTC. Put plainly: Cell growth inhibition assay (CellTiter-Glo), BaF3_DTC. The note with it: 72 h; Table 6; BaF3_DTC cells, three days, CellTiter-Glo; read-out: BaF3_DTC GI50. As for the experimental part: as §2, §3
In assay [1] the test system is BaF3_DTC (EGFR_Exon19del/T790M/C797S). Put plainly: EGFR degradation assay (western blot), BaF3_DTC cells. The note with it: BaF3_DTC cells (EGFR_Exon19del/T790M/C797S), compounds 24 h, western blot; read-out: BaF3_DTC DC50. How it is done:
as §1

Another assay has as its system BaF3_ASV. Put plainly: Cell growth inhibition assay (CellTiter-Glo), BaF3_ASV. As to conditions: 72 h; Table 6; BaF3_ASV cells, three days, CellTiter-Glo; read-out: BaF3_ASV GI50. How it is done:
as §2, §3

Assay [2] addresses T2, BaF3_ASV (EGFR_A776inASV) (Homo sapiens, UniProt P00533, DUP767-769).
T2 construct: expressed in transfected cells; host or cells: Ba/F3 (engineered)
As to the kind of experiment: EGFR degradation assay (western blot), BaF3_ASV cells. As to conditions: BaF3_ASV cells, compounds 24 h, western blot; read-out: BaF3_ASV DC50. How it is done:
as §1

SMILES strings stand for the structures.

As usually defined, the DC50 is the concentration at which degradation of the target reaches its halfway point. As usually defined, the GI50 is the concentration giving 50% growth inhibition.

T1 sequence (P00533 25-1210): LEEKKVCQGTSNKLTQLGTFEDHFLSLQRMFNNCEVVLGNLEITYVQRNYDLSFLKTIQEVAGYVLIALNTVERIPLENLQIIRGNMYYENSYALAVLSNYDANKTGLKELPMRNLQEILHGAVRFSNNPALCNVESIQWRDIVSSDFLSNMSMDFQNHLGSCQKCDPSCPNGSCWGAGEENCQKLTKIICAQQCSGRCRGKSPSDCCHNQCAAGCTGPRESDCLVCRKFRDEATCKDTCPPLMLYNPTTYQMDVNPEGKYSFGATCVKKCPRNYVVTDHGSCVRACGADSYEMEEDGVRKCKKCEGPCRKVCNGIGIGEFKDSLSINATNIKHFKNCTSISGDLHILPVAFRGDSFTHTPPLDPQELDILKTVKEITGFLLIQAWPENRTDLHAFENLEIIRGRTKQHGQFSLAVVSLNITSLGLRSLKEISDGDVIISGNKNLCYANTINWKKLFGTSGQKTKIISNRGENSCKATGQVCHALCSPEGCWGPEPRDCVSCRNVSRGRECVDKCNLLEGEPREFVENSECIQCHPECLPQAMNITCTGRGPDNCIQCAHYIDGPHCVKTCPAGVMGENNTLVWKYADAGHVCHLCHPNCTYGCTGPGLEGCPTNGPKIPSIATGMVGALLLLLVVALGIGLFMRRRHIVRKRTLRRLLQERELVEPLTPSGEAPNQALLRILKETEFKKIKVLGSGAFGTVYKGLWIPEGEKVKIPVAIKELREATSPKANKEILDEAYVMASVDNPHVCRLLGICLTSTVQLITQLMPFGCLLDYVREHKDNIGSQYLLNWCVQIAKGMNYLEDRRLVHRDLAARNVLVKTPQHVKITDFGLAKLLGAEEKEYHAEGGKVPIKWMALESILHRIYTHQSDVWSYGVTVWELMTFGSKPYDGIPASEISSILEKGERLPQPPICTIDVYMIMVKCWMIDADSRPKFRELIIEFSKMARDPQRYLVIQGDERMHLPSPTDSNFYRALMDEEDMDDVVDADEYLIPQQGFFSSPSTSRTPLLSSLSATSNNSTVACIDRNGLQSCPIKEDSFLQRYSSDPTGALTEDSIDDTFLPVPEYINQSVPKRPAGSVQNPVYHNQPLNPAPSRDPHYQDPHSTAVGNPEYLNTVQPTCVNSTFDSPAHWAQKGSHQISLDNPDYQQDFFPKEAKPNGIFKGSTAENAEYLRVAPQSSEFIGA
T2 sequence (P00533 with tags, fused parts or gaps DUP767-769): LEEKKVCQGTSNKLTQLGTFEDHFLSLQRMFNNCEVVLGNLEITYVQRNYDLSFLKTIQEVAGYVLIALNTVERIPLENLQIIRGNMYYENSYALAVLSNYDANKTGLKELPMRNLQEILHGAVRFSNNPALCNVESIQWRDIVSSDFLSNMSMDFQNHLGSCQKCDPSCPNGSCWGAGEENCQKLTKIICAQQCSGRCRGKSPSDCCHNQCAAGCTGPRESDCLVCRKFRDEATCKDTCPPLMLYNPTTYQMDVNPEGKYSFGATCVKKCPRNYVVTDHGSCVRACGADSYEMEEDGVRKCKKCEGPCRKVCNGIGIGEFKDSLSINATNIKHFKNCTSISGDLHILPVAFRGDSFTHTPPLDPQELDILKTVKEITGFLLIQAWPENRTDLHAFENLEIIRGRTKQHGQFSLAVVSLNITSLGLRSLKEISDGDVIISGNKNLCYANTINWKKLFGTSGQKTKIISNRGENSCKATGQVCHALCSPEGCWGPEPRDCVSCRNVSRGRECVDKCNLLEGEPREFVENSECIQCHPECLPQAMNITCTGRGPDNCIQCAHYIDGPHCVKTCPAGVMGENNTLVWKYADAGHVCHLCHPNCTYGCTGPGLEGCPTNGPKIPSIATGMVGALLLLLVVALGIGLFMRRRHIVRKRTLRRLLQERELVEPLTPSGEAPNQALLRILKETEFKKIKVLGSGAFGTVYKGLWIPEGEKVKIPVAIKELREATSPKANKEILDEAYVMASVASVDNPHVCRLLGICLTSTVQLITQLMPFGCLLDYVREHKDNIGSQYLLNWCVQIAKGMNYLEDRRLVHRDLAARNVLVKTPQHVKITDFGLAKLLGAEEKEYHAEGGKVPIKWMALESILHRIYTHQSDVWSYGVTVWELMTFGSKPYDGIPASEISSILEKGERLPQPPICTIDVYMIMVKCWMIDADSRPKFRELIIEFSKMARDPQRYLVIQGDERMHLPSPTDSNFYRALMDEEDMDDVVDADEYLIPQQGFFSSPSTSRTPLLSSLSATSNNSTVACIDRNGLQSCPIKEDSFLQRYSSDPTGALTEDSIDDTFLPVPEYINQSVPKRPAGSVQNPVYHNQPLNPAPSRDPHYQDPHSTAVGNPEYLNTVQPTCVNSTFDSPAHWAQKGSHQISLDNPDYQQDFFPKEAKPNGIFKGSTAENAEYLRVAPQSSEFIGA

Take `CCc1cc(Nc2ncc(Br)c(Nc3ccc4nccnc4c3NS(C)(=O)=O)n2)c(OC)cc1N1CCC(N2CCN(CC3CCN(c4ccc5c(c4)C(=O)N(C4CCC(=O)NC4=O)C5=O)CC3)CC2)CC1` (centres unmarked) [Compound 6, N-(6-((5-bromo-2-((4-(4-(4-((1-(2-(2,6-dioxopiperidin-3-yl)-1,3-dioxoisoindolin-5-yl)piperidin-4-yl)methyl)piperazin-1-yl)piperidin-1-yl)-5-ethyl-2-methoxyphenyl)amino)pyrimidin-4-yl)amino)quinoxalin-5-yl)methanesulfonamide]: the results for the DC50 (on A431 (EGFR_WT); in assay [1]; in assay [2]) were above 1000 nM, 5.94 nM and 289 nM, respectively. Moreover, the GI50 in the assay on A431 is above 1000 nM; in the assay with BaF3_DTC it was 11.2 nM; with BaF3_ASV it was 282 nM.

In the case of `CCc1cc(Nc2ncc(Br)c(Nc3ccc4nccnc4c3NS(C)(=O)=O)n2)c(OC)cc1N1CCC(N2CCN(CC3CCN(c4ccc5c(c4)CN(C4CCC(=O)NC4=O)C5=O)CC3)CC2)CC1` (centres unmarked) [Compound 7, N-(6-((5-bromo-2-((4-(4-(4-((1-(2-(2,6-dioxopiperidin-3-yl)-1-oxoisoindolin-5-yl)piperidin-4-yl)methyl)piperazin-1-yl)piperidin-1-yl)-5-ethyl-2-methoxyphenyl)amino)pyrimidin-4~yl)amino)quinoxalin-5-yl)methanesulfonamide], the DC50 on A431 (EGFR_WT) was above 1000 nM; in assay [1], 2.43 nM; in assay [2], 16.6 nM. In addition, the GI50 with A431 is above 1000 nM; in the assay on BaF3_DTC, 2.84 nM; in the assay with BaF3_ASV, 41.9 nM.

Take `CCc1cc(Nc2ncc(Br)c(Nc3ccc4nccnc4c3NS(C)(=O)=O)n2)c(OC)cc1N1CCC(N2CCN(CCc3cccc4c3C(=O)N(C3CCC(=O)NC3=O)C4)CC2)CC1` (centres unmarked) [Compound 8, N-(6-((5-bromo-2-((4-(4-(4-(2-(2-(2,6-dioxopiperidin-3-yl)-3-oxoisoindolin-4-yl)ethyl)piperazin-1-yl)piperidin-1-yl)-5-ethyl-2-methoxyphenyl)amino)pyrimidin-4-yl)amino)quinoxalin-5-yl)methanesulfonamide]: the DC50 at A431 (EGFR_WT) was above 1000 nM; in assay [1], 23.3 nM; in assay [2], above 1000 nM. Besides, the GI50 in the assay with A431 was above 1000 nM; in the assay with BaF3_DTC it was 24.7 nM; in the assay with BaF3_ASV it was 858 nM.

`CCc1cc(Nc2ncc(Br)c(Nc3ccc4nccnc4c3NS(C)(=O)=O)n2)c(OC)cc1N1CCC(N2CCN(CCc3cccc4c3CN(C3CCC(=O)NC3=O)C4=O)CC2)CC1` (centres unmarked) [Compound 9, N-(6-((5-bromo-2-((4-(4-(4-(2-(2-(2,6-dioxopiperidin-3-yl)-1-oxoisoindolin-4-yl)ethyl)piperazin-1-yl)piperidin-1-yl)-5-ethyl-2-methoxyphenyl)amino)pyrimidin-4-yl)amino)quinoxalin-5-yl)methanesulfonamide]: the DC50 at A431 (EGFR_WT) was above 1000 nM; in assay [1], 8.05 nM; in assay [2] it was 251 nM. For the same compound, the figures for the GI50 with A431, with BaF3_DTC and in the assay on BaF3_ASV were above 1000 nM, 14.7 nM and 563 nM, respectively.

With `CCc1cc(Nc2ncc(Br)c(Nc3ccc4nccnc4c3NS(C)(=O)=O)n2)c(OC)cc1N1CCC(N2CCN(CCNc3cccc4c3CN(C3CCC(=O)NC3=O)C4=O)CC2)CC1` (centres unmarked) [Compound 91, N-(6-((5-bromo-2-((4-(4-(4-(2-((2-(2,6-dioxopiperidin-3-yl)-1-oxoisoindolin-4-yl)amino)ethyl)piperazin-1-yl)piperidin-1-yl)-5-ethyl-2-methoxyphenyl)amino)pyrimidin-4-yl)amino)quinoxalin-5-yl)methanesulfonamide], the GI50 in the assay on A431 turned out to be 448 nM; in the assay on BaF3_DTC, 9.26 nM; in the assay with BaF3_ASV, 48.6 nM. Further, the DC50 in assay [1] was found to be 8.04 nM; in assay [2] it was 53.7 nM.

The values are drawn from patent US20250002473A1, “QUINOXALINE DERIVED SULFONAMIDES WITH EGFR DEGRADATION ACTIVITIES AND THEIR USES THEREOF” (Accutar Biotechnology Inc., priority 2023, published 2025).
